According to patent publication US5837839A, “DNA coding sequences for mevalonate Pyrophosphate decarboxylase” (Novartis Finance Corporation, priority 1996, dated 1998):

How the values were obtained:
[1] = molecular target: T1, partially purified human liver MPD (mevalonate pyrophosphate decarboxylase) (Homo sapiens, UniProt P53602); assay: Inhibition of partially purified human liver MPD by phenylglyoxal; type: biochemical; conditions: partially purified enzyme; no concentration stated
T1 construct: from tissue; host or cells: human liver
T1 sequence (P53602 1-400): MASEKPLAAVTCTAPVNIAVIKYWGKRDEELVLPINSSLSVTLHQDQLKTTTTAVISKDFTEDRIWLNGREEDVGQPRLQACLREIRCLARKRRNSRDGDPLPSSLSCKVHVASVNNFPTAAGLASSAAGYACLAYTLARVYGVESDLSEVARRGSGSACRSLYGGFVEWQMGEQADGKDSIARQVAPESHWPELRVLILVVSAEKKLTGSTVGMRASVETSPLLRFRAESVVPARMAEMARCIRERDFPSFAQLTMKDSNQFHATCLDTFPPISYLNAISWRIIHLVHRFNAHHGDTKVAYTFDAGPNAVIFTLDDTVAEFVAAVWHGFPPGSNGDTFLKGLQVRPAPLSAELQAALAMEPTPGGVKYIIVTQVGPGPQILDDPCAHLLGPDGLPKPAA
Excerpt: This agrees with the work of Jabalquinto et al., (1983) Arch. Biochem. Biophys. […] They concluded that a single arginine is near the binding site of ATP and MevPP in the chicken liver enzyme. To this end, the Arg27Lys and Arg153Lys mutants were made using the AAA lysine codon triplet and a single-stranded DNA template isolated from pO-3. These mutated cDNAs were subcloned into pET14-b and expressed like p11-4 as described above. […] The Arg27Lys mutant appears to produce lower activity compared to the parent plasmid ([…]) from which it was derived, but this may not be a significant difference. […] Antisera against MPD for the Westerns was made with material expressed in E. coli from plasmid p11-4.
Cell pellets from the various expression systems were sonicated in homogenization buffer (20 mM Tris/HCl pH 7.5, 15 mM EDTA, 15 mM EGTA, 100 μM Leupeptin, 0.75 mg/l Aprotinin, 0.1 mM PMSF) and assayed directly for enzyme activity and protein concentration. Activity was measured as the conversion of labelled mevalonate pyrophosphate into isopentenyl pyrophosphate. […] 2 ml of Econofluor-2 (New England Nuclear) was added to the assay mixture the sample was capped, shaken, and counted on a scintillation counter. Because of the organic nature of the scintillation fluid, dephosphorylated product (isopentenyl) is solubilized and counted whereas dephosphorylated substrate (mevalonic acid) is not. […]

[2] = tested on: chicken liver MPD (mevalonate pyrophosphate decarboxylase); conditions: pseudo-first order kinetics; ATP and MevPP protect against inactivation; cited from earlier work

inhibition of MPD [1]: inhibited
Compound: O=CC(=O)c1ccccc1 [phenylgloxal]
inactivation of MPD [2]: inactivated
